Values joined by “and” are separate entries in the source; they are usually repeats but may differ in a detail not shown here. Identical values can stand only once. Like-named read-outs stand apart in the source and are kept apart here. Each block holds one compound with its values, some of them ahead of it.
Key:
[1] = tested on: human plasma; assay: Ultracentrifugation (UC) plasma protein binding assay, fraction unbound in plasma (fup); settings: for Fup.Med: median fraction unbound in plasma; for Fup.Med / Fup.point: UC assay Level4; for Fup.point: point estimate of fraction unbound in plasma
[2] = as above; settings: both, human, plasma
[3] = Abiotic loss in negative controls of the hepatocyte clearance assay (cell-free media, metabolically inactivated hepatocytes); type: in vitro ADME
Outline: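 Test compound at 1 μM incubated at 37 °C with shaking in complete William's medium E, either cell-free or with metabolically inactivated hepatocytes, then quenched with ice-cold acetonitrile for quantitative analysis.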

[4] = tested on: human plasma; assay: Chemical stability in plasma over the UC assay time course (T5hr/T1hr); settings: for PPB_Stab_Fail: flag for stability failure in the plasma protein binding assay (1 = fail, 0 = pass); for Fstable.Med: median fraction stable in plasma, UC assay Level4
[5] = as above; settings: both, human, plasma
[6] = tested on: human plasma
[7] = tested on: human primary cells; settings: cited from earlier work
[8] = tested on: human plasma; settings: for PPB_Stab_Fail: plasma
[9] = In vitro-in vivo extrapolation (IVIVE) to Css and administered equivalent dose (AED); parameters: species or system human; settings: for Clhep: IVIVE, hepatocyte Clint scaled to whole-liver clearance; for AED: administered equivalent dose from LOEC and Css; for Fub: fub=fup/(B:P), Fub set to 1 if needed; for CLint: scaled with HPGL 110 mill cells/g, Vl 1596 g
Outline: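 Measured plasma protein binding (fup) and hepatocyte Clint served as IVIVE inputs to estimate human steady-state plasma concentration (Css). fup was converted to blood unbound fraction using blood:plasma partitioning, and Clint was scaled to whole-liver clearance (L/h). AEDs were derived by combining Css with published in vitro lowest-observed effective concentrations.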

[10] = in vitro; settings: both, human, plasma
[11] = tested on: pooled human cryopreserved primary hepatocyte suspensions; assay: Hepatic metabolic stability (hepatocyte clearance) assay, substrate depletion; type: in vitro ADME
Outline: (§1)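 Pooled 50-donor human cryopreserved hepatocytes (50,000 cells/100 μL) incubated with 1 μM compound at 37 °C with shaking. Parent loss quantified against internal standards over time to T240 in triplicate; T½ and Clint (μL/min/million cells) from ln concentration vs time, corrected for abiotic loss in cell-free and inactivated-hepatocyte controls.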

[12] = as above; type: in vitro ADME, human; settings: both sexes, human, hepatocytes
Outline: as §1

[13] = tested on: human plasma; settings: cited from earlier work
[14] = tested on: pooled human cryopreserved primary hepatocyte suspensions; settings: cited from earlier work
[15] = in vitro; settings: both, human, plasma; remark: listed apart in the source
[16] = flag for stability failure in hepatocyte clearance assay controls (1 or Fst = fail, 0 = pass)
[17] = BioSeek lowest-observed effect concentration used for AED
[18] = minimum lowest-observed effect concentration, BioSeek platform
[19] = Assuming 1 mg/kg/day dose rate, BW 70 kg
[20] = human steady-state plasma concentration, assuming 1 mg/kg/day dosage

- Fup.Med [1]: 0.63
- Fup.point [1]: 0.762
- fraction unbound at 5 h, 10 μM ([2]; Mean fu, fraction unbound in human plasma, ultracentrifugation, some values based on eLOQ): 0.841
- Hep_Stab_Fail [3, 16]: 1
- PPB_Stab_Fail [4]: 0
- Fstable.Med [4]: 0.531
- remaining at 5 h, 10 μM [5]: 66%
SMILES: FC(F)C(F)(F)COCC1CO1 (stereo not drawn) [((2,2,3,3-Tetrafluoropropoxy)methyl)oxirane]

- fup ([1]; human plasma, 10 μM, ultracentrifugation, 37 °C): 1
- Fup.Med [1]: 0.867
- Fup.point [1]: 0.963
- Fraction Unbound (fu), replicates A, B, C ([1]; single replicate of one UC run (aqueous fraction / Time 5 hr)): 0.90 and 0.77 and 0.85
- fraction unbound at 5 h, 10 μM ([2]; Fraction Unbound (fu), Run-specific Avg, average of one UC run (run date in line above)): 0.993
- fraction unbound at 5 h, 10 μM ([2]; Fraction Unbound (fu), replicates A, B, C, single replicate of one UC run (aqueous fraction / Time 5 hr)): 1
- Hep_Stab_Fail [3, 16]: 1
- Stability (T5hr/ T1hr), Run-specific Avg ([4]; average of one UC run (run date in line above)): 0.77 and 0.751
- PPB_Stab_Fail [4]: 0
- Mean Stability ([4]; mean T5hr/T1hr ratio over all replicates and runs, plasma): 0.76
- Fstable.Med [4]: 0.225
- remaining at 5 h, 10 μM [5]: 76%
SMILES: NC(O)(C(F)(F)F)C(F)(F)F [2-Aminohexafluoropropan-2-ol]
- Stability (T5hr/ T1hr), replicates A, B, C ([4]; single replicate of one UC run): 0.60 and 0.78 and 0.93 and 0.61 and 0.77 and 0.88

SMILES: OCC(F)(F)OC(F)(F)C(F)(F)OC(F)(F)CO [1H,1H,8H,8H-Perfluoro-3,6-dioxaoctane-1,8-diol]
- No Cells BkgdCl, Clearance ([3]; 1 μM): 3.324
- HT BkgdCl, Clearance ([3]; both, human, 1 μM): 0
- Hep_Stab_Fail ([3]; both, human, 120 min, 1 μM): 0
- half-life at 1 μM ([3]; buffer): 6.95 h
- HT BkgdCl, Slope ([3]; heat treated hepatocytes control, 0 vs 240 min): -0.0009212
- No Cells BkgdCl, Slope ([3]; no cells control, 0 vs 240 min): -0.00166
- Aqueous Fraction, Run-specific Avg ([6]; both, human, 5 h, 10 μM): 1857.99
- Fup.Med ([6]; both, human, 5 h, 10 μM): 0.191
- Fup.point ([6]; both, human, 5 h, 10 μM): 0.207
- fup ([6]; both, human, 5 h, 10 μM): 0.2069
- LOEC [7, 17]: 7.00 µM
- LOEC [7, 18]: 7 µM
- Time 1 hr, Run-specific Avg ([8]; both, human, 1 h, 10 μM): 8416.46
- Fstable.Med ([8]; both, human, 5 h, 10 μM): 0.999
- Mean Stability ([8]; both, human, 5 h, 10 μM): 1.067
- Stability (T5hr/ T1hr), Run-specific Avg ([8]; both, human, 5 h, 10 μM): 1.023
- Time 5 hr, Run-specific Avg ([8]; both, human, 5 h, 10 μM): 8614.09
- PPB_Stab_Fail ([8]; both, human, 5 h, 10 μM): 0
- Css [9, 19]: 0.13 mg/L and 0.43 uM
- Clhep [9]: 20.549 L/h
- AED [9]: 16.1536 mg/kg/day
- Fub [9]: 0.3762
- Css [9, 20]: 0.43 µM
- CLint [9]: 1179763 µL/min
- fraction unbound at 5 h, 10 μM ([10]; Fraction Unbound (fu)): 0.188
- fraction unbound at 5 h, 10 μM ([10]; Fraction Unbound (fu), Run-specific Avg): 0.21
- fraction unbound at 5 h, 10 μM ([10]; Mean Fu): 0.207
- fraction unbound at 5 h, 10 μM ([10]; Mean fu): 0.207
- Linear Regression Results, Best-Fit Values, Slope ([11]; hepatocyte time course): -0.003361
- Clint.1.Med ([11]; human, s9): 0
- half-life at 1 μM [12]: 3.44 h
- hepatocyte CLint at 1 μM ([12]; Bkgd Adj Clint): 6.72 µL/min/1e6 cells
- hepatocyte CLint at 1 μM ([12]; Bkgd-Sub Clearance (µL/min/106 hepatocytes)): 6.72 µL/min/1e6 cells
- hepatocyte CLint at 1 μM ([12]; Bkgd_adj_Clint): 6.72 µL/min/1e6 cells
- hepatocyte CLint at 1 μM ([12]; In Vitro Clint): 6.72 µL/min/1e6 cells
- hepatocyte CLint at 1 μM ([12]; Linear Regression Results, Best-Fit Values, Clearance): 6.72 µL/min/1e6 cells
- hepatocyte CLint at 1 μM ([12]; Unadj Clint): 6.72 µL/min/1e6 cells
- hepatocyte CLint at 1 μM ([12]; Unadj in vitro Clint): 6.72 µL/min/1e6 cells

SMILES: NS(=O)(=O)C(F)(F)C(F)(F)C(F)(F)C(F)(F)C(F)(F)C(F)(F)C(F)(F)C(F)(F)F [Perfluorooctanesulfonamide, reference compound]
- fup [13]: 0.0039
- In Vitro Clint [14]: 11.93 μL/min/10^6 cells
- LOEC [7, 17]: 2.00 µM
- LOEC [7, 18]: 2 µM
- Css [9, 19]: 3.16 mg/L and 6.33 uM
- Clhep [9]: 0.882 L/h
- AED [9]: 0.3157 mg/kg/day
- Fub [9]: 0.007091
- Css [9, 20]: 6.33 µM
- CLint [9]: 2094431 µL/min
- fraction unbound at 5 h, 10 μM ([10]; Mean fu): 0.0039
- hepatocyte CLint at 1 μM ([12]; in vitro CLint): 11.9 µL/min/1e6 cells

SMILES: C=CC(=O)OCC(F)(F)C(F)F [2,2,3,3-Tetrafluoropropyl acrylate]
- Hep_Stab_Fail ([3]; both, human, 120 min, 1 μM): 1
- remaining at 5 h, 10 μM [15]: 0%
- Uncertain [6]: Y
- Fup.Med ([6]; both, human, 5 h, 10 μM): 1.93E-08
- Fup.point ([6]; both, human, 5 h, 10 μM): 0.234
- Unstable [8]: Y
- Fstable.Med ([8]; both, human, 5 h, 10 μM): 0.000712
- PPB_Stab_Fail ([8]; both, human, 5 h, 10 μM): 1

Source: PMC10223284, “Category-Based Toxicokinetic Evaluations of Data-Poor Per- and Polyfluoroalkyl Substances (PFAS) using Gas Chromatography Coupled with Mass Spectrometry” (Toxics, 2023)
